Consider 19 compounds from patent publication US20110190280A1, “Thiazole And Oxazole Kinase Inhibitors” (priority 2007, published 2011).

In test [1] the test system is SK-MEL-3 tumor cells. Description: Cell growth inhibition assay (CellTiter-Glo), SK-MEL-3.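 Also: human melanoma cells grown with compound for 3 days in 0.2% DMSO, total ATP read by luminescence as proxy for cell number, growth inhibition versus DMSO-treated wells.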 Particulars: Homo sapiens, SK-MEL3, 72 h, read-out: Activity in SK-MEL-3 Tumor Cells. On the technique in general: In ATP-based viability assays light output follows the ATP content of the culture.
The subject of test [2] is Colo205 tumor cells. Description: Cell growth inhibition assay (CellTiter-Glo), Colo205.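 Also: growth measured via total ATP luminescence (CellTiter-Glo) as a proxy for cell number, inhibition expressed against DMSO-treated control wells, 3-day exposure at 0.2% final DMSO.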 Particulars: Homo sapiens, COLO 205, 72 h, read-out: Activity in Colo205 Tumor Cells.
The test system of test [3] is A375P tumor cells. Description: Cell growth inhibition assay (CellTiter-Glo), A375P.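 Also: total ATP luminescence used as proxy for cell number, serial threefold compound dilutions at 0.2% DMSO, growth inhibition expressed versus DMSO vehicle-treated wells.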 The conditions noted are these: Homo sapiens, 72 h, read-out: Activity in A375P Tumor Cells.
Test [4] concerns the target B-Raf (Homo sapiens, UniProt P15056). Description: B-Raf Accelerated MEK ATPase assay (BRAMA). Particulars: BRAMA enzyme assay; class by pIC50; read-out: B-Raf Activity. In kind it is biochemical. Put shortly: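 B-Raf activity read as intrinsic MEK ATPase: catalytic activated RAF with non-phosphorylated MEK drives ADP formation, coupled through pyruvate kinase and lactate dehydrogenase to NADH oxidation, independent of ERK phosphorylation.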

For test [5], the system named is SK-MEL-28 tumor cells. Description: Cell growth inhibition assay (CellTiter-Glo), SK-MEL-28.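 Also: luminescent total ATP as a proxy for cell number, threefold serial dilutions at 0.2% DMSO, percent growth inhibition versus DMSO vehicle control wells.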 Particulars: Homo sapiens, SK-MEL-28, 72 h, read-out: Activity in SK-MEL-28 Tumor Cells.
Test [6] relates to HT-29 tumor cells. Briefly: Cell growth inhibition assay (CellTiter-Glo), HT-29.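 Also: ATP content read by luminescence as proxy for cell number, growth inhibition versus DMSO vehicle wells, 0.2% DMSO final, nine serial threefold compound dilutions.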 Particulars: Homo sapiens, HT-29, 72 h, read-out: Activity in HT-29 Tumor Cells.

Structures are written as SMILES. Counter-ions that a name gives are not always drawn.

B-Raf, sequence (P15056 whole entry): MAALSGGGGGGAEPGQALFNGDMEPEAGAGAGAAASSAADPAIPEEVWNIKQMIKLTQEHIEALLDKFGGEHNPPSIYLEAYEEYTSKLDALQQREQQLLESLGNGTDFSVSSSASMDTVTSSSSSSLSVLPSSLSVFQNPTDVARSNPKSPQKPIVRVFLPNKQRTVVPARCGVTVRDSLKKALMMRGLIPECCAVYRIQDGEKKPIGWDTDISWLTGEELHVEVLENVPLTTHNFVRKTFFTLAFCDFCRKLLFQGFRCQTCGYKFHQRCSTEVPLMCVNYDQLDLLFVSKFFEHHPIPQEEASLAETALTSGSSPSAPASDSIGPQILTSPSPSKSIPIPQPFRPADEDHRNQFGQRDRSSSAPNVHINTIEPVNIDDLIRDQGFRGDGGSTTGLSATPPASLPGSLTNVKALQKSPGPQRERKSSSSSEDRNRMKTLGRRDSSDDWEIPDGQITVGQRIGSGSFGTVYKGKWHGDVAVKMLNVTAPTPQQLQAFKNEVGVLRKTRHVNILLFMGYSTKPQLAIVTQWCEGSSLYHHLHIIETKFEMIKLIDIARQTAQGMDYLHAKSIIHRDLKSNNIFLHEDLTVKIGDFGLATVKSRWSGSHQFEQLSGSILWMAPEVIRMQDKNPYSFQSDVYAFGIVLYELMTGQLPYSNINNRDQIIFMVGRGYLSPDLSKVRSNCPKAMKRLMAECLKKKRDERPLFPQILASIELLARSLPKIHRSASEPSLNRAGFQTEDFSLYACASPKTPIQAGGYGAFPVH

Take `COc1cccc(-c2nc(C(C)C)sc2-c2ccnc(Nc3ccc(OC4CCN(C(C)C)CC4)c(F)c3)n2)c1` [Example 59, N-(3-Fluoro-4-{[1-(1-methylethyl)-4-piperidinyl]oxy}phenyl)-4-{2-(1-methylethyl)-4-[3-(methyloxy)phenyl]-1,3-thiazol-5-yl}-2-pyrimidinamine]: the IC50 in test [1] was less than 500 nM; in test [2], less than 500 nM; in test [3], 500 to 5000 nM; in test [4] it was less than 100 nM; in test [5], 500 to 5000 nM; in test [6], less than 500 nM.
Consider `CCNc1nc(-c2ccc3c(c2)OCO3)c(-c2ccnc(Nc3ccc(OC4CCN(CCS(C)(=O)=O)CC4)c(F)c3)n2)s1` [Example 52, 4-[4-(1,3-Benzodioxol-5-yl)-2-(ethylamino)-1,3-thiazol-5-yl]-N-[3-fluoro-4-({1-[2-(methylsulfonyl)ethyl]-4-piperidinyl}oxy)phenyl]-2-pyrimidinamine], for which the IC50 is less than 500 nM in test [1]; less than 500 nM in test [2]; less than 500 nM in test [3]; less than 100 nM in test [4]; less than 500 nM in test [5]; less than 500 nM in test [6].
For the compound `CCNc1nc(-c2cc(OC)cc(OC)c2)c(-c2ccnc(Nc3ccc(OCCN4CCOCC4)c(F)c3)n2)s1` [Example 13, 4-[4-[3,5-Bis(methyloxy)phenyl]-2-(ethylamino)-1,3-thiazol-5-yl]-N-(3-fluoro-4-{[2-(4-morpholinyl)ethyl]oxy}phenyl)-2-pyrimidinamine], the IC50 is less than 500 nM in test [1]; 500 to 5000 nM in test [2]; 500 to 5000 nM in test [3]; less than 100 nM in test [4]; 500 to 5000 nM in test [5]; less than 500 nM in test [6].
On to `CCNc1nc(-c2cc(OC)cc(OC)c2)c(-c2ccnc(Nc3ccc(N4CCN(CCF)CC4)nc3)n2)o1` [Example 112], for which the IC50 is 500 to 5000 nM in test [1]; less than 500 nM in test [2]; 500 to 5000 nM in test [3]; less than 100 nM in test [4]; 500 to 5000 nM in test [5]; 500 to 5000 nM in test [6].
Consider `CCc1nc(-c2cccc(CO)c2)c(-c2ccnc(Nc3ccc(N4CCOCC4)c(F)c3)n2)s1` [Example 67, {3-[2-Ethyl-5-(2-{[3-fluoro-4-(4-morpholinyl)phenyl]amino}-4-pyrimidinyl)-1,3-thiazol-4-yl]phenyl}methanol], for which the IC50 was less than 500 nM in test [1]; 500 to 5000 nM in test [2]; less than 500 nM in test [3]; less than 100 nM in test [4]; 500 to 5000 nM in test [5]; less than 500 nM in test [6].
Turning to `CCNc1nc(-c2cc(C)cc(OC)c2)c(-c2ccnc(Nc3ccc(N4CCOCC4)c(C(F)(F)F)c3)n2)s1` [Example 25, 4-{2-(Ethylamino)-4-[3-methyl-5-(methyloxy)phenyl]-1,3-thiazol-5-yl}-N-[4-(4-morpholinyl)-3-(trifluoromethyl)phenyl]-2-pyrimidinamine], the IC50 was less than 500 nM in test [1]; 500 to 5000 nM in test [2]; less than 500 nM in test [3]; less than 100 nM in test [4]; 500 to 5000 nM in test [5]; less than 500 nM in test [6].
Consider `CCNc1nc(-c2ccc(Cl)c(OC)c2)c(-c2ccnc(Nc3ccc(OCCN4CCCC4)c(Cl)c3)n2)s1` [Example 49, 4-[4-[4-Chloro-3-(methyloxy)phenyl]-2-(ethylamino)-1,3-thiazol-5-yl]-N-(3-chloro-4-{[2-(1-pyrrolidinyl)ethyl]oxy}phenyl)-2-pyrimidinamine], for which the IC50 was less than 500 nM in test [1]; 500 to 5000 nM in test [2]; less than 500 nM in test [3]; less than 100 nM in test [4]; 500 to 5000 nM in test [5]; less than 500 nM in test [6].
Regarding `CCNc1nc(-c2cccc(N(C)C)c2)c(-c2ccnc(Nc3ccc(OCCN4CCCC4)c(Cl)c3)n2)s1` [Example 45, N-(3-Chloro-4-{[2-(1-pyrrolidinyl)ethyl]oxy}phenyl)-4-[4-[3-(dimethylamino)phenyl]-2-(ethylamino)-1,3-thiazol-5-yl]-2-pyrimidinamine], the IC50 in test [1] was 500 to 5000 nM; in test [2], 500 to 5000 nM; in test [3], 500 to 5000 nM; in test [4] it was less than 100 nM; in test [5] it was 500 to 5000 nM; in test [6], less than 500 nM.
As for `CCNc1nc(-c2cc(OC)cc(OC)c2)c(-c2ccnc(Nc3ccc(N4CCN(CCF)CC4)c(F)c3)n2)o1` [Example 117], the IC50 in test [1] is 500 to 5000 nM; in test [2], less than 500 nM; in test [3] it was 500 to 5000 nM; in test [4] it was less than 100 nM; in test [5] it was 500 to 5000 nM; in test [6], 500 to 5000 nM.
As for `CCNc1nc(-c2cc(OC)cc(OC)c2)c(-c2ccnc(Nc3ccc(O[C@H]4CCN(CCS(C)(=O)=O)C4)nc3)n2)s1` [Example 3, 4-[4-[3,5-Bis(methyloxy)phenyl]-2-(ethylamino)-1,3-thiazol-5-yl]-N-[6-({(3S)-1-[2-(methylsulfonyl)ethyl]-3-pyrrolidinyl}oxy)-3-pyridinyl]-2-pyrimidinamine], the IC50 in test [1] was less than 500 nM; in test [2], less than 500 nM; in test [3], less than 500 nM; in test [4], less than 100 nM; in test [5], less than 500 nM; in test [6] it was less than 500 nM.
On to `CCNc1nc(-c2cc(C)cc(OC)c2)c(-c2ccnc(Nc3ccc(N4CC[C@@H](F)C4)nc3)n2)o1` [Example 81], for which the IC50 was 500 to 5000 nM in test [1]; 500 to 5000 nM in test [2]; 500 to 5000 nM in test [3]; less than 100 nM in test [4]; 500 to 5000 nM in test [5]; 500 to 5000 nM in test [6].
Turning to `CCNc1nc(-c2cc(C)cc(OC)c2)c(-c2ccnc(Nc3ccc(OCCOC)c(F)c3)n2)s1` [Example 38, 4-{2-(Ethylamino)-4-[3-methyl-5-(methyloxy)phenyl]-1,3-thiazol-5-yl}-N-(3-fluoro-4-{[2-(methyloxy)ethyl]oxy}phenyl)-2-pyrimidinamine], the IC50 is less than 500 nM in test [1]; less than 500 nM in test [2]; less than 500 nM in test [3]; less than 100 nM in test [4]; 500 to 5000 nM in test [5]; less than 500 nM in test [6].
Turning to `COc1cc(C)cc(-c2nc(C(C)C)oc2-c2ccnc(Nc3ccc(N4CCN(C(C)=O)CC4)nc3)n2)c1` [Example 98], the IC50 is less than 500 nM in test [1]; less than 500 nM in test [2]; 500 to 5000 nM in test [3]; less than 100 nM in test [4]; 500 to 5000 nM in test [5]; 500 to 5000 nM in test [6].
With `CCNc1nc(-c2cc(OC)cc(OC)c2)c(-c2ccnc(Nc3ccc(N4CCN(S(C)(=O)=O)CC4)nc3)n2)s1` [Example 2, 4-[4-[3,5-bis(methyloxy)phenyl]-2-(ethylamino)-1,3-thiazol-5-yl]-N-{6-[4-(methylsulfonyl)-1-piperazinyl]-3-pyridinyl}-2-pyrimidinamine], the IC50 was less than 500 nM in test [1]; less than 500 nM in test [2]; less than 500 nM in test [3]; less than 100 nM in test [4]; less than 500 nM in test [5]; less than 500 nM in test [6].
On to `COc1cc(OC)cc(-c2nc(NC3CC3)sc2-c2ccnc(Nc3ccc(OCCN4CCCC4=O)c(F)c3)n2)c1` [Example 16, 1-(2-{[4-({4-[4-[3,5-Bis(methyloxy)phenyl]-2-(cyclopropylamino)-1,3-thiazol-5-yl]-2-pyrimidinyl}amino)-2-fluorophenyl]oxy}ethyl)-2-pyrrolidinone trifluoroacetate], for which the IC50 in test [1] is less than 500 nM; in test [2], 500 to 5000 nM; in test [3], 500 to 5000 nM; in test [4] it was less than 100 nM; in test [5] it was 500 to 5000 nM; in test [6] it was less than 500 nM.
Take `CCNc1nc(-c2cc(OC)cc(OC)c2)c(-c2ccnc(Nc3ccc(OC4CCN(CCOC)CC4)c(F)c3)n2)o1` [Example 89]: the IC50 was less than 500 nM in test [1]; 500 to 5000 nM in test [2]; 500 to 5000 nM in test [3]; less than 100 nM in test [4]; 500 to 5000 nM in test [5]; 500 to 5000 nM in test [6].
Turning to `COc1cc(C)cc(-c2nc(C(C)C)oc2-c2ccnc(Nc3ccc(N4CCN(CCS(C)(=O)=O)CC4)c(F)c3)n2)c1` [Example 102], the IC50 in test [1] was less than 500 nM; in test [2], less than 500 nM; in test [3] it was 500 to 5000 nM; in test [4], less than 100 nM; in test [5], 500 to 5000 nM; in test [6] it was less than 500 nM.
Take `CCNc1nc(-c2cc(OC)ccc2F)c(-c2ccnc(Nc3ccc(N4CCN(C)CC4)c(F)c3)n2)s1` [Example 56, 4-{2-(Ethylamino)-4-[2-fluoro-5-(methyloxy)phenyl]-1,3-thiazol-5-yl}-N-[3-fluoro-4-(4-methyl-1-piperazinyl)phenyl]-2-pyrimidinamine]: the IC50 was less than 500 nM in test [1]; less than 500 nM in test [2]; less than 500 nM in test [3]; less than 100 nM in test [4]; 500 to 5000 nM in test [5]; less than 500 nM in test [6].
Regarding `CCNc1nc(-c2cc(OC)cc(OC)c2)c(-c2ccnc(Nc3ccc(OC4CCN(CCS(C)(=O)=O)CC4)c(OC)c3)n2)o1` [Example 95], the IC50 in test [1] was 500 to 5000 nM; in test [2], 500 to 5000 nM; in test [3] it was 500 to 5000 nM; in test [4], less than 100 nM; in test [5], 500 to 5000 nM; in test [6], 500 to 5000 nM.
